Reference: the CheMixHub viscosity set
Where “and” joins values, the source holds several entries; their conditions need not be identical. Equal values may be shown once.

Legend:
[1] = xn = mol fraction of the nth substance listed

CCN(CC)c1ccccc1
viscosity
Conditions	298 K	298.15 K	303.15 K	308 K	308.15 K	313 K	313.15 K	318.15 K	323.15 K
101 kPa	1.919 mPa·s	1.93 mPa·s and 1.77 mPa·s and 1.93 mPa·s	1.72 mPa·s and 1.525 mPa·s	1.534 mPa·s	1.55 mPa·s	–	1.35 mPa·s	1.274 mPa·s	1.15 mPa·s and 1.07 mPa·s
101.3 kPa	1.933 mPa·s	–	–	1.547 mPa·s	–	1.41 mPa·s	–	–	–

CCCN(CCC)CCC
101 kPa
Conditions	viscosity [mPa·s]
293.15 K	0.67
298.15 K	0.523
303.15 K	0.495
308.15 K	0.46
313.15 K	0.45
318.15 K	0.412
323.15 K	0.38

ClCCCCl
Conditions	viscosity [mPa·s]
298.15 K, 101 kPa	0.9443

CCCC[NH3+].O=[N+]([O-])[O-]
Conditions	viscosity [mPa·s]
298 K, 101 kPa	108.5

CCCCC(CC)COC(C)=O (stereo not drawn)
101.33 kPa
Conditions	viscosity [mPa·s]
293.15 K	1.471
303.15 K	1.234
313.15 K	1.051
323.15 K	0.906

Clc1ccc(Cl)c(Cl)c1
viscosity [mPa·s]
Conditions	303.15 K	313.15 K	318.15 K
100 kPa	–	1.472	1.329
101 kPa	1.785	1.472	1.329

CCCCCCCCCCN
Conditions	viscosity [mPa·s]
303.15 K, 101 kPa	1.766

CCCCCCCCCCBr
101 kPa
Conditions	viscosity [mPa·s]
297.75 K	2.35
303.95 K	2.08
313.55 K	1.75

CCCC(C)CO (stereo not drawn)
Conditions	viscosity
298.15 K, 101.33 kPa	5.304 mPa·s and 5.304 mPa·s

CC1(C)OC1C#N (stereo not drawn)
101 kPa
Conditions	viscosity [mPa·s]
293.15 K	1.337
298.15 K	1.223
303.15 K	1.1
313.15 K	0.938
323.15 K	0.79

CCOC(=O)CC(=O)OCC
101 kPa
Conditions	viscosity [mPa·s]
303.15 K	1.728
308.15 K	1.57
313.15 K	1.456

CCCCCCCC[P+](CC)(CC)CC.Cc1nc([N+](=O)[O-])c[n-]1
100 kPa
Conditions	viscosity [mPa·s]
293.15 K	920
298.15 K	623
303.15 K	435
308.15 K	313
313.15 K	231
318.15 K	174
323.15 K	135

CCCCCCCCCCCC(=O)OCC
viscosity
Conditions	293.15 K	303.15 K	308.15 K	313.15 K	323.15 K
100 kPa	3.374 mPa·s	–	2.43 mPa·s	2.203 mPa·s	1.827 mPa·s
101.33 kPa	3.374 mPa·s	2.695 mPa·s	2.43 mPa·s	2.203 mPa·s and 2.045 mPa·s	1.827 mPa·s

FC(F)(Cl)C(F)(F)Cl
101 kPa
Conditions	viscosity [mPa·s]
293.35 K	0.3524
313.05 K	0.2877

CCN(CC)c1ccccc1 + Oc1ccccc1
viscosity [mPa·s], [1], 101 kPa
Conditions	298.15 K	313.15 K	323.15 K
x1 = 0.0654	8.65	4.49	3.1
x1 = 0.1184	8.76	4.49	3.13
x1 = 0.139	8.47	4.35	3
x1 = 0.1758	8.2	4.17	2.87
x1 = 0.2126	7.75	3.95	2.77
x1 = 0.2997	6.44	3.49	2.48
x1 = 0.3868	5.27	3	2.17
x1 = 0.5	4.11	2.51	1.93
x1 = 0.5955	3.27	2.13	1.65
x1 = 0.6559	2.86	1.95	1.52
x1 = 0.7162	2.63	1.8	1.37
x1 = 0.8502	2.17	1.48	1.22

ClCCCCl + CCCCO
viscosity [mPa·s], [1], 101 kPa
Conditions	x1 = 0.0958	x1 = 0.2016	x1 = 0.3004	x1 = 0.3983	x1 = 0.5002	x1 = 0.5993	x1 = 0.6997	x1 = 0.7997	x1 = 0.9
298.15 K	2.139	1.773	1.512	1.32	1.177	1.071	0.9963	0.9461	0.9256
313.15 K	1.488	1.261	1.101	0.9831	0.8935	0.8317	0.7876	0.76	0.7528

CC1(C)OC1C#N (stereo not drawn) + ClC(Cl)(Cl)Cl
viscosity [mPa·s], [1], 101 kPa
Conditions	293.15 K	298.15 K	303.15 K	313.15 K	323.15 K
x1 = 0.009	0.983	0.938	0.906	0.779	0.67
x1 = 0.087	0.98	0.937	0.877	0.754	0.675

Clc1ccc(Cl)c(Cl)c1 + Nc1cccc(Cl)c1
viscosity [mPa·s], [1], 100 kPa
Conditions	x2 = 0.0895	x2 = 0.1795	x2 = 0.3125	x2 = 0.4256	x2 = 0.5169	x2 = 0.6254	x2 = 0.7145	x2 = 0.8102	x2 = 0.9012
303.15 K	1.993	2.225	2.565	2.851	3.079	3.348	3.566	3.798	4.017
308.15 K	1.825	2.033	2.337	2.593	2.797	3.037	3.231	3.437	3.631
313.15 K	1.658	1.843	2.111	2.336	2.516	2.727	2.896	3.078	3.248
318.15 K	1.493	1.653	1.887	2.083	2.237	2.419	2.566	2.722	2.867

CCN(CC)c1ccccc1 + CCCCCCO
viscosity [mPa·s], [1], 100 kPa
Conditions	x1 = 0.1057	x1 = 0.1952	x1 = 0.3004	x1 = 0.4021	x1 = 0.5011	x1 = 0.6117	x1 = 0.7135	x1 = 0.8163	x1 = 0.9045
303.15 K	3.391	3.041	2.695	2.423	2.207	2.014	1.879	1.78	1.725
308.15 K	2.85	2.524	2.226	1.997	1.814	1.667	1.577	1.525	1.501
313.15 K	2.403	2.096	1.835	1.652	1.518	1.405	1.332	1.297	1.313
318.15 K	2.105	1.801	1.569	1.421	1.314	1.218	1.151	1.119	1.148

[Br-].[K+] + O
[1]
Conditions	viscosity
293.15 K, 101.3 kPa, x1 = 0.0009	0.9993 mPa·s
293.15 K, 101.3 kPa, x1 = 0.0018	0.9961 mPa·s
293.15 K, 101.3 kPa, x1 = 0.00893	0.9721 mPa·s
293.15 K, 101.3 kPa, x1 = 0.03478	0.9229 mPa·s
293.15 K, 101.3 kPa, x1 = 0.05127	0.9162 mPa·s
293.15 K, 101.3 kPa, x1 = 0.06722	0.9253 mPa·s
298.15 K, 100 kPa, x1 = 0.002229	0.8854 mPa·s
298.15 K, 100 kPa, x1 = 0.004266	0.8805 mPa·s
298.15 K, 100 kPa, x1 = 0.008299	0.8743 mPa·s
298.15 K, 100 kPa, x1 = 0.03864	0.8498 mPa·s
298.15 K, 101.3 kPa, x1 = 0.0009	0.8884 mPa·s and 0.8888 mPa·s
298.15 K, 101.3 kPa, x1 = 0.001798	0.8873 mPa·s
298.15 K, 101.3 kPa, x1 = 0.0018	0.8862 mPa·s
298.15 K, 101.3 kPa, x1 = 0.00359	0.8842 mPa·s
298.15 K, 101.3 kPa, x1 = 0.005732	0.8803 mPa·s
298.15 K, 101.3 kPa, x1 = 0.008927	0.8746 mPa·s
298.15 K, 101.3 kPa, x1 = 0.00893	0.8692 mPa·s
298.15 K, 101.3 kPa, x1 = 0.01421	0.8666 mPa·s
298.15 K, 101.3 kPa, x1 = 0.0177	0.8529 mPa·s
298.15 K, 101.3 kPa, x1 = 0.02116	0.8588 mPa·s
298.15 K, 101.3 kPa, x1 = 0.03478	0.8352 mPa·s
298.15 K, 101.3 kPa, x1 = 0.05127	0.8342 mPa·s
303.15 K, 101.3 kPa, x1 = 0.0009	0.7962 mPa·s
303.15 K, 101.3 kPa, x1 = 0.0018	0.7947 mPa·s
303.15 K, 101.3 kPa, x1 = 0.00893	0.7827 mPa·s
303.15 K, 101.3 kPa, x1 = 0.03478	0.7609 mPa·s
303.15 K, 101.3 kPa, x1 = 0.05127	0.7639 mPa·s
303.15 K, 101.3 kPa, x1 = 0.06722	0.7781 mPa·s
308.15 K, 101.3 kPa, x1 = 0.0009	0.7187 mPa·s and 0.7188 mPa·s
308.15 K, 101.3 kPa, x1 = 0.001798	0.7187 mPa·s
308.15 K, 101.3 kPa, x1 = 0.0018	0.7177 mPa·s
308.15 K, 101.3 kPa, x1 = 0.00359	0.7178 mPa·s
308.15 K, 101.3 kPa, x1 = 0.005732	0.7165 mPa·s
308.15 K, 101.3 kPa, x1 = 0.008927	0.7145 mPa·s
308.15 K, 101.3 kPa, x1 = 0.00893	0.7095 mPa·s
308.15 K, 101.3 kPa, x1 = 0.01421	0.7121 mPa·s
308.15 K, 101.3 kPa, x1 = 0.0177	0.7021 mPa·s
308.15 K, 101.3 kPa, x1 = 0.02116	0.7104 mPa·s
308.15 K, 101.3 kPa, x1 = 0.03478	0.6969 mPa·s
308.15 K, 101.3 kPa, x1 = 0.05127	0.7029 mPa·s
308.15 K, 101.3 kPa, x1 = 0.06722	0.7189 mPa·s
312.45 K, 100 kPa, x1 = 0.002229	0.661 mPa·s
312.85 K, 100 kPa, x1 = 0.01672	0.6499 mPa·s
313.55 K, 100 kPa, x1 = 0.03864	0.6449 mPa·s
313.85 K, 100 kPa, x1 = 0.004266	0.6426 mPa·s
313.95 K, 100 kPa, x1 = 0.008299	0.6399 mPa·s
318.15 K, 101.3 kPa, x1 = 0.0009	0.5963 mPa·s and 0.5961 mPa·s
318.15 K, 101.3 kPa, x1 = 0.001798	0.5966 mPa·s
318.15 K, 101.3 kPa, x1 = 0.0018	0.596 mPa·s
318.15 K, 101.3 kPa, x1 = 0.00359	0.5969 mPa·s
318.15 K, 101.3 kPa, x1 = 0.005732	0.5913 mPa·s
318.15 K, 101.3 kPa, x1 = 0.008927	0.5975 mPa·s
318.15 K, 101.3 kPa, x1 = 0.00893	0.5928 mPa·s
318.15 K, 101.3 kPa, x1 = 0.01421	0.5983 mPa·s
318.15 K, 101.3 kPa, x1 = 0.0177	0.5908 mPa·s
318.15 K, 101.3 kPa, x1 = 0.02116	0.5998 mPa·s
318.15 K, 101.3 kPa, x1 = 0.03478	0.593 mPa·s
318.15 K, 101.3 kPa, x1 = 0.05127	0.6036 mPa·s
318.15 K, 101.3 kPa, x1 = 0.06722	0.6221 mPa·s
321.85 K, 100 kPa, x1 = 0.002229	0.5597 mPa·s
322.75 K, 100 kPa, x1 = 0.01672	0.5528 mPa·s
322.95 K, 100 kPa, x1 = 0.004266	0.552 mPa·s
